Assay results taken from PubChem BioAssay AID2124 (Sanford-Burnham Center for Chemical Genomics, 2009).
Records with an inconclusive call do not appear. The source made the active and inactive calls. How the calls were made is not given here; tested in MIN6 cells.

Assays:
[1] = cell-permeable autofluorescent compounds in GFP channel, dose response, artefact control, imaging, high-content imaging (AID 2124); conditions: cells, GFP-channel autofluorescence, high-content imaging; cell count; at 10 µM;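 on cell count: cells exposed to compound for 48 hours before fixing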
[2] = tested on: cells, GFP-channel autofluorescence, high-content imaging; test: as above

| Structure (SMILES) | cell count [1] [cells] | EC50 [2] |
| --- | --- | --- |
| CC(C)(C)NC(=S)N/N=C\c1ccc(-c2ccc([N+](=O)[O-])cc2)o1 | 3000 | 11.4 µM (inactive) |
| Cc1cccn2c(=O)c(/C=C3\SC(=S)N(CC(C)C)C3=O)c(NCCCOC(C)C)nc12 | 2810 | > 16 µM (inactive) |
| CCCN1C(=O)/C(=C/c2c(N3CCNC(=O)C3CC(=O)OCC)nc3c(C)cccn3c2=O)SC1=S (centres undefined) | 2790 | 5.56 µM |
| Oc1ccc(/C=N/Nc2ccnc3cc(Cl)ccc23)c(O)c1 | 1690 | 10.3 µM (inactive) |
| N#C/C(=C/c1ccc(N2CCOCC2)o1)c1ccc(Cl)cc1 | 1320 | 7.31 µM |
| CCN1CC=C2C(C#N)=C(N)C(C#N)(C#N)C(c3cc(Cl)ccc3Cl)C2C1 (centres undefined) | 2980 | 12.8 µM (inactive) |
| COc1ccc2c(c1)NC(c1ccc(N(C)C)cc1)c1cccn1-2 (centres undefined) | 2940 | 3.12 µM |
| N#C/C(=C/c1ccc(N2CCOCC2)o1)C(=O)Nc1ccccc1 | 3080 | 6.7 µM |
| N#C/C(=C\c1ccc(N2CCOCC2)o1)C(=O)NCCc1ccccc1 | 3060 | 8.69 µM |
| O=[N+]([O-])c1ccc(/C=C/C2=NN(c3ccccc3)C(c3ccco3)C2)o1 (centres undefined) | 3240 | 3.87 µM |
| O=C(O)c1ccccc1N/N=C/c1c(Sc2nnnn2-c2ccccc2)nc2ccccn2c1=O | 3260 | 10.7 µM (inactive) |
| Cc1cc(/C=C2/C(=O)N(C)C(=S)N2C)ccc1N1CCCC1 | 2680 | 3.02 µM |
| CN1/C(=C\C=C2/SC(=S)NC2=O)C(C)(C)c2ccccc21 | 147 | 6.13 µM |
| N#C/C(=C\c1ccc(N2CCOCC2)o1)c1ccccc1 | 2130 | > 16 µM (inactive) |
| CN1/C(=C\C=C(/C#N)C(=O)Nc2ccccc2F)C(C)(C)c2ccccc21 | 2910 | 6.93 µM |
| CCOCCCNc1nc2c(C)cccn2c(=O)c1/C=C1\SC(=S)N(C(C)CC)C1=O (centres undefined) | 2910 | > 16 µM (inactive) |

| Structure (SMILES) | cell count [1] [cells] | EC50 [2] |
| --- | --- | --- |
| C=CCN1C(=O)c2cccc3c(N4CCCCC4)ccc(c23)C1=O | 3300 | 6.64 µM |
| CN1CCS/C1=C/C=C1/SC(=S)N(Cc2ccccc2)C1=O | 2970 | 8.87 µM |
| COc1cc([C@@H]2[C@H]3CNCC=C3C(C#N)=C(N)C2(C#N)C#N)ccc1OC(C)C | 3160 | 13.6 µM (inactive) |
| Cc1oc(C)c2c(=O)ccc3c(c12)OC(N)=C(C#N)C3c1ccccc1Cl (centres undefined) | 3240 | 14.8 µM (inactive) |
| CCOC(=O)N1CCN(/C=C(\C#N)c2nc3ccccc3s2)CC1 | 2980 | 11.7 µM (inactive) |
| CC(C)/C=C1\CC/C(=C\c2ccc(N(C)C)cc2)C1=O | 2850 | 9.45 µM |
| CCOC(=O)Cc1csc(NC(=O)c2sc3nc4c(C)cc(C)cc4cc3c2N)n1 | 2560 | 10.9 µM (inactive) |
| CCN(CC)c1ccc2cc(C(N)=O)/c(=N\NC(=O)c3ccncc3)oc2c1 | 3100 | 9.35 µM |
| CCN1CC=C2C(C1)C(c1ccc(Cl)s1)C(C#N)=C(N)C2(C#N)C#N (centres undefined) | 3020 | 11.5 µM (inactive) |
| Cc1ccc(CNc2ccc3c(c2)OCO3)cc1 | 2720 | 6.18 µM |
| CCCN1C=CC(=C/C=C(\C#N)C(=O)OCC)C=C1 | 2900 | 6.81 µM |
| Cc1ccc(/C(C#N)=C\c2ccc(N3CCOCC3)o2)cc1 | 1110 | 10.3 µM (inactive) |
| CC(=O)Nc1ccc(N=Cc2c(O)c(C(=O)Nc3ccccc3)cc3ccccc23)cc1 | 1540 | 11.1 µM (inactive) |
| Cc1nn(C)cc1N1C(=O)c2cccc3c(N)ccc(c23)C1=O | 2940 | > 16 µM (inactive) |
| O=[N+]([O-])c1ccc(N2N=C(c3ccco3)CC2c2ccccc2)cc1 (centres undefined) | 2840 | 6.38 µM |
| O=C(/C=C/c1ccc(N2CCC(c3ccccc3)=N2)cc1)c1ccccc1 | 2900 | 5.99 µM |
